# Laboratory results: patent publication US10980805B2, “Aza-pyridone compounds and uses thereof” (Janssen BioPharma, Inc., priority 2013, dated 2021)
# Like-named read-outs stand apart in the source and are kept apart here.
# Legend:
# [1] = molecular target: Full length EN PA (influenza PA endonuclease) (Influenza A virus, UniProt P15659); test: EN PA FRET inhibition assay; type: biochemical; conditions: FRET probe, mean of a minimum of two independent experiments, read-out: Potency (IC50 class, Table 3)
# [2] = system: Influenza strain A549_A/WSN/33 (H1N1); test: Influenza antiviral assay (neuraminidase fluorescence readout); type: cell-based, Influenza virus; conditions: read-out: % Inhibition (EC50 class, Table 2)
Structure (SMILES),IC50 [1],EC50 ([2]; Influenza A virus),EC50 [2]
"CC(C)N1C[C@H](C(c2ccccc2)c2cccc(Cl)c2)n2ncc(=O)c(O)c2C1=O (single isomer, unassigned) [Compound 73-A]",< 250 nM,< 20000 nM,–
"CC(C)N1C[C@@H](C(c2ccccc2)c2cccc(Cl)c2)n2ncc(=O)c(O)c2C1=O (single isomer, unassigned) [Compound 73-B]",250 to 1000 nM,< 20000 nM,–
"CC(C)N1C[C@H](C(c2ccccc2)c2cccc(Cl)c2)n2ncc(=O)c(O)c2C1=O (single isomer, unassigned) [Compound 82-A]",< 250 nM,–,< 20000 nM
"CC(C)N1C[C@@H](C(c2ccccc2)c2cccc(Cl)c2)n2ncc(=O)c(O)c2C1=O (single isomer, unassigned) [Compound 82-B]",250 to 1000 nM,–,–
CN1C[C@H](C(c2ccccc2)c2ccccc2)n2ncc(=O)c(O)c2C1=O [Compound 1-A],< 250 nM,< 20000 nM,–
CN1C[C@@H](C(c2ccccc2)c2ccccc2)n2ncc(=O)c(O)c2C1=O [Compound 1-B],250 to 1000 nM,< 20000 nM,–
CN1CC(C(c2ccccc2)c2ccccc2)n2ncc(=O)c(O)c2C1=O (centres unmarked) [Compound 1],< 250 nM,< 20000 nM,–
CN1CC(Cc2ccccc2)n2ncc(=O)c(O)c2C1=O (centres unmarked) [Compound 2],< 250 nM,–,–
CN1CC(CCc2ccccc2)n2ncc(=O)c(O)c2C1=O (centres unmarked) [Compound 3],< 250 nM,–,–
Cc1ccccc1CC1CN(C)C(=O)c2c(O)c(=O)cnn21 (centres unmarked) [Compound 4],< 250 nM,–,–
CCN1C[C@H](C(c2ccccc2)c2ccccc2)n2ncc(=O)c(O)c2C1=O [Compound 5-A],< 250 nM,< 20000 nM,–
CCN1C[C@@H](C(c2ccccc2)c2ccccc2)n2ncc(=O)c(O)c2C1=O [Compound 5-B],250 to 1000 nM,< 20000 nM,–
CCN1CC(C(c2ccccc2)c2ccccc2)n2ncc(=O)c(O)c2C1=O (centres unmarked) [Compound 5],< 250 nM,< 20000 nM,–
CC(C)N1C[C@@H](C(c2ccccc2)c2ccccc2)n2ncc(=O)c(O)c2C1=O [Compound 6-B],250 to 1000 nM,< 20000 nM,–
CC(C)N1CC(C(c2ccccc2)c2ccccc2)n2ncc(=O)c(O)c2C1=O (centres unmarked) [Compound 6],< 250 nM,< 20000 nM,–
CN1C[C@@H](C2c3ccccc3CCc3ccccc32)n2ncc(=O)c(O)c2C1=O [Compound 7-B],< 250 nM,< 20000 nM,–
CN1CC(C2c3ccccc3CCc3ccccc32)n2ncc(=O)c(O)c2C1=O (centres unmarked) [Compound 7],< 250 nM,< 20000 nM,–
O=C1NCC(C(c2ccccc2)c2ccccc2)n2ncc(=O)c(O)c21 (centres unmarked) [Compound 8],< 250 nM,< 20000 nM,–
CN1C[C@H]([C@@H](c2ccccc2)c2cccc(Cl)c2)n2ncc(=O)c(O)c2C1=O [Compound 9-A],< 250 nM,< 20000 nM,–
CN1C[C@H]([C@H](c2ccccc2)c2cccc(Cl)c2)n2ncc(=O)c(O)c2C1=O [Compound 9-B],< 250 nM,< 20000 nM,–
CN1CC(C(c2ccccc2)c2cccc(Cl)c2)n2ncc(=O)c(O)c2C1=O (centres unmarked) [Compound 9],< 250 nM,< 20000 nM,–
O=C1NCC(C2c3ccccc3CSc3c(Cl)cccc32)n2ncc(=O)c(O)c21 (centres unmarked) [Compound 10],< 250 nM,< 20000 nM,–
CC(C)N1CC(=C(c2ccccc2)c2ccccc2)n2ncc(=O)c(O)c2C1=O [Compound 11],< 250 nM,–,–

Structure (SMILES),IC50 [1],EC50 ([2]; Influenza A virus),EC50 [2]
CCN1C[C@H]([C@@H](c2ccccc2)c2cccc(Cl)c2)n2ncc(=O)c(O)c2C1=O [Compound 12-A],< 250 nM,< 20000 nM,–
CCN1C[C@H]([C@H](c2ccccc2)c2cccc(Cl)c2)n2ncc(=O)c(O)c2C1=O [Compound 12-B],< 250 nM,< 20000 nM,–
CCN1C[C@H](C(c2ccccc2)c2cccc(Cl)c2)n2ncc(=O)c(O)c2C1=O (some centres unmarked) [Compound 12-C],< 250 nM,–,–
CCN1C[C@@H]([C@@H](c2ccccc2)c2cccc(Cl)c2)n2ncc(=O)c(O)c2C1=O [Compound 12-D],250 to 1000 nM,–,–
CCN1C[C@@H]([C@H](c2ccccc2)c2cccc(Cl)c2)n2ncc(=O)c(O)c2C1=O [Compound 12-E],< 250 nM,–,–
CCN1CC(C(c2ccccc2)c2cccc(Cl)c2)n2ncc(=O)c(O)c2C1=O (centres unmarked) [Compound 12],< 250 nM,< 20000 nM,–
O=C1c2c(O)c(=O)cnn2[C@@H](C2c3ccccc3CCc3ccccc32)CN1Cc1ccccc1 [Compound 13-A],< 250 nM,< 20000 nM,–
O=C1c2c(O)c(=O)cnn2[C@H](C2c3ccccc3CCc3ccccc32)CN1Cc1ccccc1 [Compound 13-B],250 to 1000 nM,< 20000 nM,–
O=C1c2c(O)c(=O)cnn2C(C2c3ccccc3CCc3ccccc32)CN1Cc1ccccc1 (centres unmarked) [Compound 13],< 250 nM,< 20000 nM,–
CCN1C[C@H](C2c3ccccc3CCc3ccccc32)n2ncc(=O)c(O)c2C1=O [Compound 14-A],< 250 nM,< 20000 nM,–
CCN1C[C@@H](C2c3ccccc3CCc3ccccc32)n2ncc(=O)c(O)c2C1=O [Compound 14-B],< 250 nM,–,–
CCN1CC(C2c3ccccc3CCc3ccccc32)n2ncc(=O)c(O)c2C1=O (centres unmarked) [Compound 14],< 250 nM,< 20000 nM,–
CC(N1CC(=C(c2ccccc2)c2ccccc2)n2ncc(=O)c(O)c2C1=O)C(F)(F)F (centres unmarked) [Compound 15],≥ 1000 nM,–,–
O=C1NCC(C2c3ccccc3CSc3cc(Cl)ccc32)n2ncc(=O)c(O)c21 (centres unmarked) [Compound 16],250 to 1000 nM,< 20000 nM,–
CC(C)N1C[C@H](C2c3ccccc3CCc3ccccc32)n2ncc(=O)c(O)c2C1=O [Compound 17-A],< 250 nM,–,–
CC(C)N1C[C@@H](C2c3ccccc3CCc3ccccc32)n2ncc(=O)c(O)c2C1=O [Compound 17-B],< 250 nM,< 20000 nM,–
CC(C)N1CC(C2c3ccccc3CCc3ccccc32)n2ncc(=O)c(O)c2C1=O (centres unmarked) [Compound 17],< 250 nM,< 20000 nM,–
C[C@H](N1C[C@H](C(c2ccccc2)c2ccccc2)n2ncc(=O)c(O)c2C1=O)C(F)(F)F [Compound 18-A],< 250 nM,< 20000 nM,–
C[C@@H](N1C[C@@H](C(c2ccccc2)c2ccccc2)n2ncc(=O)c(O)c2C1=O)C(F)(F)F [Compound 18-B],< 250 nM,< 20000 nM,–
CC(N1CC(C(c2ccccc2)c2ccccc2)n2ncc(=O)c(O)c2C1=O)C(F)(F)F (centres unmarked) [Compound 18],< 250 nM,< 20000 nM,–
CN1CC(Cc2ccccc2-c2ccccc2)n2ncc(=O)c(O)c2C1=O (centres unmarked) [Compound 19],< 250 nM,< 20000 nM,–
CC(C)N1CC(C(c2ccccc2)c2cccc(Cl)c2)n2ncc(=O)c(O)c2C1=O (centres unmarked) [Compound 20],< 250 nM,< 20000 nM,–
CCN1C[C@@H](C(c2cccc(F)c2)c2cccc(F)c2)n2ncc(=O)c(O)c2C1=O [Compound 21-B],< 250 nM,< 20000 nM,–

Structure (SMILES),IC50 [1],EC50 ([2]; Influenza A virus),EC50 [2]
CCN1CC(C(c2cccc(F)c2)c2cccc(F)c2)n2ncc(=O)c(O)c2C1=O (centres unmarked) [Compound 21],< 250 nM,< 20000 nM,–
CN1CC(C(c2cccc(F)c2)c2cccc(F)c2)n2ncc(=O)c(O)c2C1=O (centres unmarked) [Compound 22],< 250 nM,< 20000 nM,–
CN1CC(C(c2ccccc2)c2cccc(F)c2)n2ncc(=O)c(O)c2C1=O (centres unmarked) [Compound 23],< 250 nM,< 20000 nM,–
CCN1CC(C(c2ccccc2)c2cccc(F)c2)n2ncc(=O)c(O)c2C1=O (centres unmarked) [Compound 24],< 250 nM,< 20000 nM,–
Cc1cccc(C(c2cccc(C)c2)C2CN(C)C(=O)c3c(O)c(=O)cnn32)c1 (centres unmarked) [Compound 25],< 250 nM,< 20000 nM,–
COc1cccc(C(c2ccccc2)C2CN(C)C(=O)c3c(O)c(=O)cnn32)c1 (centres unmarked) [Compound 26],< 250 nM,< 20000 nM,–
Cc1cccc(C(c2ccccc2)C2CN(C)C(=O)c3c(O)c(=O)cnn32)c1 (centres unmarked) [Compound 27],< 250 nM,< 20000 nM,–
CN1CC(C(c2cccc(Cl)c2)c2cccc(Cl)c2)n2ncc(=O)c(O)c2C1=O (centres unmarked) [Compound 28],< 250 nM,< 20000 nM,–
CN1CC(C2c3ccccc3CCc3cc(Cl)ccc32)n2ncc(=O)c(O)c2C1=O (centres unmarked) [Compound 29],< 250 nM,< 20000 nM,–
CC(C)N1CC(=C2c3ccccc3CCc3ccccc32)n2ncc(=O)c(O)c2C1=O [Compound 30],< 250 nM,20000 to 100000 nM,–
CN1CC(C2c3ccc(Cl)cc3CCc3cc(Cl)ccc32)n2ncc(=O)c(O)c2C1=O (centres unmarked) [Compound 31],< 250 nM,< 20000 nM,–
CN1CC(C(c2ccccc2)c2ccc(Cl)cc2)n2ncc(=O)c(O)c2C1=O (centres unmarked) [Compound 32],< 250 nM,< 20000 nM,–
C[C@H](N1C[C@H](C2c3ccccc3CCc3ccccc32)n2ncc(=O)c(O)c2C1=O)C(F)(F)F [Compound 33-A],< 250 nM,< 20000 nM,–
C[C@@H](N1C[C@@H](C2c3ccccc3CCc3ccccc32)n2ncc(=O)c(O)c2C1=O)C(F)(F)F [Compound 33-B],< 250 nM,< 20000 nM,–
CCN1CC(C(c2ccccc2)c2cccc(OC)c2)n2ncc(=O)c(O)c2C1=O (centres unmarked) [Compound 34],< 250 nM,< 20000 nM,–
C[C@H](N1CC(C(c2ccccc2)c2ccccc2)n2ncc(=O)c(O)c2C1=O)C(F)(F)F (some centres unmarked) [Compound 35-A],< 250 nM,< 20000 nM,–
C[C@@H](N1CC(C(c2ccccc2)c2ccccc2)n2ncc(=O)c(O)c2C1=O)C(F)(F)F (some centres unmarked) [Compound 35-B],250 to 1000 nM,< 20000 nM,–
CC(C)N1C[C@@H](C(c2cccc(F)c2)c2cccc(F)c2)n2ncc(=O)c(O)c2C1=O [Compound 41-B],250 to 1000 nM,–,–
CCC(CC)N1CC(C(c2ccccc2)c2ccccc2)n2ncc(=O)c(O)c2C1=O (centres unmarked) [Compound 43],< 250 nM,–,–
CC(C)N1CC(C(c2cccc(Cl)c2)c2cccc(Cl)c2)n2ncc(=O)c(O)c2C1=O (centres unmarked) [Compound 44],< 250 nM,–,–
[2H]c1c([2H])c([2H])c(C(c2c([2H])c([2H])c([2H])c([2H])c2[2H])[C@H]2CN(C(C)C)C(=O)c3c(OC(=O)C(C)C)c(=O)cnn32)c([2H])c1[2H] [Compound 130],–,< 20000 nM,–
